Test results taken from patent US20260184675A1, “CHIRAL ISOMERIC SULFITE COMPOUND AND APPLICATION THEREOF” (Chengdu Hanova BioSciences Co., Ltd, priority 2024, published 2026).

Assays:
Type in all cases: in vivo
[1] = tested on: eggs of Aleyrodidae; assay: Effect on hatching of eggs of Aleyrodidae, leaf disc method; settings: 10 ppm; for Hatching rate (%), Replicate 1 / Hatching rate (%), Replicate 2 / Hatching rate (%), Replicate 3 / Number of hatched larvae 5 days after insecticide delivery, Replicate 1 / Number of hatched larvae 5 days after insecticide delivery, Replicate 2 / Number of hatched larvae 5 days after insecticide delivery, Replicate 3: Aleyrodidae eggs; for Hatching rate (%), Replicate 1 / Hatching rate (%), Replicate 2 / Hatching rate (%), Replicate 3: 5 days after delivery; for Number of hatched larvae 5 days after insecticide delivery, Replicate 1 / Number of hatched larvae 5 days after insecticide delivery, Replicate 2 / Number of hatched larvae 5 days after insecticide delivery, Replicate 3: leaf disc
Method in brief: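 Leaf discs carrying Aleyrodidae eggs were first examined microscopically to record a baseline egg count. They were then dipped for 10 seconds in compound solution at 10 ppm or in clear water, taken out, and incubated with humidity maintained. Five days after delivery, the number of hatched larvae was recorded to assess hatching inhibition.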

[2] = tested on: eggs of Tetranychus cinnabarinus; assay: Control efficacy on eggs of Tetranychus cinnabarinus of compounds compounded with ginger rhizome / Kaempferia galanga L rhizome mixture (Bliss joint action); settings: for joint effect on controlling of eggs of Tetranychus cinnabarinus (in words): compounded with a mixture of ginger rhizome and Kaempferia galanga L rhizome (7:3); for Control efficacy for eggs of Tetranychus cinnabarinus on day 5 (%): single agent
Description: The ginger rhizome extract and volatile oil of Kaempferia galanga L rhizome were used to prepare a mixture of ginger rhizome and Kaempferia galanga L rhizome at a compounding ratio of 7:3, which was then compounded with compound 1, compound 10 and compound 19, and a leaf-disc method was used to evaluate the control efficacy on eggs of Tetranychus cinnabarinus based on the Experimental method in Example 1.
The ginger rhizome extract was prepared by extracting the ginger rhizome using a mixed solvent of ethyl acetate and ethanol at a ratio of 1:4.
According to the concept of independent joint action proposed by Bliss, the theoretical mortality rate P when the pesticides and acaricides are used in mixture can be calculated using the following equation: […]
Pm is the mortality rate (%) of the target when the first active component is used at a concentration of m; and Pn is the mortality rate (%) of the target when the second active component is used at a concentration of n.

[3] = tested on: eggs of Harmonia axyridis; assay: Effect on hatching of eggs of Harmonia axyridis, egg card immersion; settings: 100 ppm; for Number of hatched larvae 4 days after insecticide delivery, Replicate 1 / Number of hatched larvae 4 days after insecticide delivery, Replicate 2 / Number of hatched larvae 4 days after insecticide delivery, Replicate 3: Harmonia axyridis egg cards, immersed 30 seconds; for Hatching rate (%), Replicate 1 / Hatching rate (%), Replicate 2 / Hatching rate (%), Replicate 3: Harmonia axyridis eggs, 4 days after delivery
Method in brief: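 Egg cards (~20 eggs each) dipped 30 s in 100 ppm insecticide, air dried and kept moist at 27° C; 5 cards per treatment, 3 replicates. Hatching assessed 4 days after treatment against pre-treatment egg counts, and control effect calculated by formula.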

Row | SMILES | inhibitory activity on the hatching of eggs of Aleyrodidae (in words) [1] | Hatching rate (%), Replicate 1 [1] [%] | Hatching rate (%), Replicate 2 [1] [%] | Hatching rate (%), Replicate 3 [1] [%] | Number of hatched larvae 5 days after insecticide delivery, Replicate 1 [1] | Number of hatched larvae 5 days after insecticide delivery, Replicate 2 [1] | Number of hatched larvae 5 days after insecticide delivery, Replicate 3 [1] | joint effect on controlling of eggs of Tetranychus cinnabarinus (in words) [2] | Control efficacy for eggs of Tetranychus cinnabarinus on day 5 (%) ([2]; 0.1 mg/L) | Control efficacy for eggs of Tetranychus cinnabarinus on day 5 (%) ([2]; 0.2 mg/L) | inhibitory activity on the hatching of eggs of Harmonia axyridis (in words) [3] | Number of hatched larvae 4 days after insecticide delivery, Replicate 1 [3] | Number of hatched larvae 4 days after insecticide delivery, Replicate 2 [3] | Number of hatched larvae 4 days after insecticide delivery, Replicate 3 [3] | Hatching rate (%), Replicate 1 [3] [%] | Hatching rate (%), Replicate 2 [3] [%] | Hatching rate (%), Replicate 3 [3] [%] | further results
1 | CC(C)(COc1ccc(Cl)cc1Cl)OS(=O)OCCF (stereo not drawn) [Compound 10] | strong inhibitory activities | 0.76 | 0.00 | 1.61 | 1 | 0 | 2 | synergistic effect | 11.45 | 20.79 | strong inhibitory activities | 4 | 3 | 7 | 4.04 | 3.85 | 5.56 | Control efficacy for eggs of Tetranychus cinnabarinus on day 5 (%) ([2]; 0.5 mg/L): 68.12%
2 | CC(COS(=O)OCCF)Oc1ccc(Cl)cc1Cl (stereo not drawn) [Compound 1] | strong inhibitory activities | 0.00 | 1.50 | 0.00 | 0 | 2 | 0 | synergistic effect | 17.12 | 33.58 | strong inhibitory activities | 7 | 6 | 6 | 6.25 | 6.38 | 6.06 | Control efficacy for eggs of Tetranychus cinnabarinus on day 5 (%) ([2]; 0.3 mg/L): 52.19%
3 | CCC(COc1ccc(Cl)cc1Cl)OS(=O)OCCF (stereo not drawn) [Compound 19] | strong inhibitory activities | 0.00 | 0.00 | 0.00 | 0 | 0 | 0 | synergistic effect | 20.57 | 36.14 | strong inhibitory activities | 3 | 5 | 4 | 3.26 | 4.45 | 4.17 | Control efficacy for eggs of Tetranychus cinnabarinus on day 5 (%) ([2]; 0.25 mg/L): 48.73%
4 | CC(COc1ccc(Cl)cc1Cl)OS(=O)OCCF [1′-(R,S)] | strong inhibitory activities | – | – | – | – | – | – | – | – | – | strong inhibitory activities | – | – | – | – | – | – | Hatching rate (%), Replicate 1 ([1]; listed as 1′-(R, S)): 0.00%; Hatching rate (%), Replicate 2 ([1]; listed as 1′-(R, S)): 0.00%; Hatching rate (%), Replicate 3 ([1]; listed as 1′-(R, S)): 0.00%; Number of hatched larvae 5 days after insecticide delivery, Replicate 1 ([1]; listed as 1′-(R, S)): 0; Number of hatched larvae 5 days after insecticide delivery, Replicate 2 ([1]; listed as 1′-(R, S)): 0; Number of hatched larvae 5 days after insecticide delivery, Replicate 3 ([1]; listed as 1′-(R, S)): 0; Number of hatched larvae 4 days after insecticide delivery, Replicate 1 ([3]; listed as 1′-(R, S)): 0; Number of hatched larvae 4 days after insecticide delivery, Replicate 2 ([3]; listed as 1′-(R, S)): 0; Number of hatched larvae 4 days after insecticide delivery, Replicate 3 ([3]; listed as 1′-(R, S)): 0; Hatching rate (%), Replicate 1 ([3]; listed as 1′-(R, S)): 0.00%; Hatching rate (%), Replicate 2 ([3]; listed as 1′-(R, S)): 0.00%; Hatching rate (%), Replicate 3 ([3]; listed as 1′-(R, S)): 0.00%
5 | CC(C)(COS(=O)OCCF)Oc1ccc(Cl)cc1Cl (stereo not drawn) [Compound 10′] | strong inhibitory activities | 2.02 | 0.97 | 1.05 | 2 | 1 | 1 | – | – | – | strong inhibitory activities | 5 | 5 | 6 | 5.75 | 5.26 | 4.92 | –
6 | CC[C@H](COc1ccc(Cl)cc1Cl)OS(=O)OCCF (stereo partly drawn) [19-(R,S)] | strong inhibitory activities | 0.00 | 0.00 | 0.00 | 0 | 0 | 0 | – | – | – | strong inhibitory activities | 0 | 0 | 0 | 0.00 | 0.00 | 0.00 | –
7 | C[C@H](COS(=O)OCCF)Oc1ccc(Cl)cc1Cl (stereo partly drawn) [1-(R,S)] | – | – | – | – | – | – | – | – | – | – | – | – | – | – | – | – | – | Hatching rate (%), Replicate 1 ([1]; listed as 1-(R, S)): 7.95%; Hatching rate (%), Replicate 2 ([1]; listed as 1-(R, S)): 7.41%; Hatching rate (%), Replicate 3 ([1]; listed as 1-(R, S)): 7.44%; Number of hatched larvae 5 days after insecticide delivery, Replicate 1 ([1]; listed as 1-(R, S)): 7; Number of hatched larvae 5 days after insecticide delivery, Replicate 2 ([1]; listed as 1-(R, S)): 10; Number of hatched larvae 5 days after insecticide delivery, Replicate 3 ([1]; listed as 1-(R, S)): 9; Number of hatched larvae 4 days after insecticide delivery, Replicate 1 ([3]; listed as 1-(R, S)): 11; Number of hatched larvae 4 days after insecticide delivery, Replicate 2 ([3]; listed as 1-(R, S)): 9; Number of hatched larvae 4 days after insecticide delivery, Replicate 3 ([3]; listed as 1-(R, S)): 10; Hatching rate (%), Replicate 1 ([3]; listed as 1-(R, S)): 9.91%; Hatching rate (%), Replicate 2 ([3]; listed as 1-(R, S)): 10.23%; Hatching rate (%), Replicate 3 ([3]; listed as 1-(R, S)): 10.53%
